For one test, the system named is L1210. Briefly: Cytotoxicity against mouse L1210 cells. Format: functional. As to conditions: for EC50: read-out: ED50 (the source's name).
For the next test, the system named is KB. In words: Cytotoxicity against human KB cells. The test is classed as functional. As to conditions: for EC50: read-out: ED50 (the source's name).
For the next test, the system named is P388. Briefly: In vivo antitumor activity against mouse P388 cells. Format: functional, organism-based.

In brackets after ≈: the same amount, converted by molar mass. Activity calls are given as the source filed them. The calls are words filed in the database; no cut-off is given here.

The values below come from ChEMBL document CHEMBL1149753, “Two new alkaloids from Xestospongia sp., a New Caledonian sponge” (1992).

`CN(C)CC1NCCc2c1[nH]c1ccccc21` (stereo unspecified): the ED50 entry in the test on L1210 and with KB was “inactive” each time.
For the molecule `O[C@@]12CCCCCC[C@H]3CCN4CCC[C@@H](CCCCCC[C@H]5CCN(CCC1)[C@@H]2O5)[C@H]4O3` [DEMETHYLXESTOSPONGIN B], the result in the test with P388 was inactive. Besides, the EC50 in the test on L1210 turned out to be 0.8 µg/mL (≈ 1.73 µM); with KB it was 2.5 µg/mL (≈ 5.4 µM).
Taken in the same sequence, the figures for `C[C@@H]1CN2CCC[C@H]3CCCCCC[C@H]4CCN5CCC[C@@](O)(CCCCCC[C@@H]1O[C@H]32)[C@H]5O4` [XESTOSPONGIN B] were “inactive”, 2 µg/mL (≈ 4.2 µM) and 2.5 µg/mL (≈ 5.24 µM).
Taken in the same sequence, the figures for `O[C@@]12CCCCCC[C@H]3CCN4CCC[C@H](CCCCCC[C@H]5CCN(CCC1)[C@@H]2O5)[C@H]4O3` [XESTOSPONGIN D] were “inactive”, 0.2 µg/mL (≈ 0.432 µM) and 2 µg/mL (≈ 4.32 µM).
